Experimental data reported in patent US20230175033A1, “PRODUCTION OF JASMONATES IN FILAMENTOUS FUNGI” (Sumitomo Chemical Company, Limited, priority 2020, published 2023).
Where two headings read alike, the source gives them in different places.

How the values were obtained:
[1] = system: Lasiodiplodia iranensis DWH-2; test: JA production by Lasiodiplodia iranensis cultures under shaking conditions, JA content by HPLC; format: cell-based
[2] = system: Lasiodiplodia iranensis DWH-2; test: Morphology of Lasiodiplodia iranensis cultures under shaking conditions; format: cell-based; details: shaking 250 rpm, 30° C.
[3] = shaker 250 rpm, 30° C., eight days, 200 mg/L IAA and sodium butyrate, 100 mg/L SA and ASA, 10 mg/L VA, 2 mM H2O2

Structure (SMILES)	Titer (mg/L), production of JA with a jasmonate production elicitor [1, 3]	further results
CC(=O)Oc1ccccc1C(=O)O [ASA, acetylsalicylic acid]	100 mg/L	
OO [H2O2, hydrogen peroxide]	160 mg/L	
O=C([O-])Cc1c[nH]c2ccccc12.[Na+] [IAA, Indole-3-acetic acid sodium salt]	400 mg/L	
O=C([O-])c1ccccc1O.[Na+] [SA, salicylic acid sodium salt]		Titer (mg/L), production of JA with a jasmonate production elicitor [1]: 150 mg/L
CCCC(=O)[O-].[Na+] [Sodium butyrate, sodium butyrate]		Titer (mg/L), production of JA with a jasmonate production elicitor [1]: 175 mg/L
CCCC(CCC)C(=O)[O-].[Na+] [VA, valproic acid sodium salt]	350 mg/L	
CC(C)=CCCC(C)=CCCC(C)=CCO [farnesol]		effect on fungal morphology ([2]; 100 mg/L farnesol, nine days): induced mycelial aggregation
OCCc1ccc(O)cc1 [tyrosol]		effect on fungal morphology ([2]; 100 mg/L tyrosol, seven days): induced mycelial aggregation
